Values of other authors as cited in patent US9045248B2 (priority 2007, dated 2015).

Target: influenza virus RNP (Influenza A virus, UniProt P03428)
Details: cited from earlier work

Chain of influenza virus RNP (P03428 whole entry, looked up): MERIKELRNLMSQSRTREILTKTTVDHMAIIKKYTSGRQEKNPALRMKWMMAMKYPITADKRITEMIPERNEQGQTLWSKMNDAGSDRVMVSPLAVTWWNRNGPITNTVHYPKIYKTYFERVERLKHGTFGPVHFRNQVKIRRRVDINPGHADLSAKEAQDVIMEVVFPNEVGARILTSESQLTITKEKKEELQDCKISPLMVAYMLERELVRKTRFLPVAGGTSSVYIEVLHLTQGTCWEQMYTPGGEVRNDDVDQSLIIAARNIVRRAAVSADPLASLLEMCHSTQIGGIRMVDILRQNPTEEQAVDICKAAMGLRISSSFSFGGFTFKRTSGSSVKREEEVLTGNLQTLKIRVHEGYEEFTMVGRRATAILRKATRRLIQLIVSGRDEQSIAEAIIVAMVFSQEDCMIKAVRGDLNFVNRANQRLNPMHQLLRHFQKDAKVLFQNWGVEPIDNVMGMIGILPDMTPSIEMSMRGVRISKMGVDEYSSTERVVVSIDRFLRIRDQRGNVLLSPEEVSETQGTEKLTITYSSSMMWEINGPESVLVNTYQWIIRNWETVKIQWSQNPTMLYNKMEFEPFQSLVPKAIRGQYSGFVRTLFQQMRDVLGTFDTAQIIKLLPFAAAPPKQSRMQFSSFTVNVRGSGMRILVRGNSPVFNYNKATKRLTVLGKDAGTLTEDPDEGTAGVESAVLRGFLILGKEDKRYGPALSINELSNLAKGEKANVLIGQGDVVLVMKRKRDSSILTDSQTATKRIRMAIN

Row | Structure (SMILES) | IC50
1 | Nc1nc2c(ncn2[C@@H]2O[C@H](COP(=O)(O)OP(=O)(O)OP(=O)(O)O)[C@@H](O)[C@H]2O)c(=O)[nH]1 [GTP] | 550 µM
2 | C[n+]1cn([C@@H]2O[C@H](COP(=O)(O)OP(=O)(O)OP(=O)(O)O)[C@@H](O)[C@H]2O)c2nc(N)[nH]c(=O)c21 [m^7GTP, 7-methyl-guanosine triphosphate] | 113 µM
